We go through six molecules from patent US9856298B2 (priority 2011, dated 2018).

≈ marks a conversion by molar mass, not a printed value. Numbered stars: 1 amine (or outer) side, 2 acyl side, 3 side chain; on linkers, the order of the positions; unused ones are H or OH. Square brackets hold non-standard residues; d marks the D form. Side chains are listed from the residue outwards. Peptide text beside a SMILES is read from it. * marks the point of attachment. Orn(α-tetramethylguanidino) = CN(C)C(=N[C@@H](CCCN)C(=O)*)N(C)C; δOrn(α-TMG) = CN(C)C(=N[C@@H](CCCN[*:1])C(=O)[*:2])N(C)C; sPEG750 = PEG of 750 linked via acid group; Hyp = O=C(O)[C@@H]1C[C@@H](O)CN1; Tle = CC(C)(C)[C@H](N)C(=O)O; Orn = NCCC[C@H](N)C(=O)O

Data set [1] relates to Escherichia coli strain BL21AI. Description: Minimum inhibitory concentration in 1% TSB. It is filed as cell-based. The following applies: for MIC in TSB: E. coli BL21AI, 1% TSB, 20 hours at 37° C.; for Effect of peptide linker or remaining linker residues on the MIC: compared with the unmodified peptide. The procedure: (§1) To that end, the peptides were dissolved in water and diluted in a two-fold dilution series with 1% aqueous soybean medium (TSB) in sterile 96-well plates (Greiner Bio-One GmbH) from 128 μg/ml in twelve dilution steps to 62.5 ng/ml. Overnight cultures of Escherichia coli strain BL21AI were adjusted with 1% TSB to about […] colony forming units per ml. In each case 50 μl of peptide solution per well were then mixed with in each case 50 μl of the bacteria solution, in order to achieve a starting concentration of 4×10^5 bacteria per well. After incubation for 20 hours at 37° C., the absorption at 595 nm was determined (microplate reader, TECAN Trading AG).

A short description of data set [2]: Serum stability / release of peptide in pure mouse serum (100%) (RP-HPLC, MALDI-MS).
Procedure: 30 μl of a 1 mg/ml peptide solution were diluted with 120 μl of water and, after addition of 50 of serum, incubated at 37° C. for 0 hours, 0.5 hour, 1 hour, 2 hours or 4 hours. Alternatively, the peptide derivatives having a starting concentration of 3 mg/ml were diluted with serum to a final concentration of 15 μg/ml. According to the stability of the peptides, the samples were analysed at the times mentioned above or after 0 hours, 4 hours and 6 hours. The serum proteins were precipitated by addition of 50 μl of 15% TCA, and the supernatant was neutralised with 25 μl of 1 mol/l NaOH. The samples were made up to 250 μl with 5% B, 230 μl of the solution were transferred into a HPLC vial, and 220 μl were injected.
RP-HPLC analysis was carried out with a linear acetonitrile gradient (Biosolve BV, Valkenswaard, Netherlands) in the presence of 0.1% trifluoroacetic acid (TFA, UV grade, Fluka Chemie GmbH, Buchs, Switzerland) as ion-pair reagent. The fractions were co-crystallised with α-cyanohydroxycinnamic acid (Bruker Daltonik GmbH; Bremen, Germany) as matrix (4 mg/ml in 60% acetonitrile in 0.1% aqueous TFA) and analysed with a tandem mass spectrometer (MALDI-TOF/TOF-MS, 4700 Proteomics Analyzer; Applied Biosystems GmbH, Weiterstadt, Germany) in positive-ion reflector mode. The amount of intact peptides and their degradation products or metabolites could thus be identified and quantified at the individual times. 25% aqueous mouse serum, which was analysed in parallel for the same time intervals, was used as control.
Data set [3] concerns Escherichia coli strain BL21AI. Description: Minimum inhibitory concentration in TSB in the presence of 25% mouse serum. It is filed as cell-based. The settings on record: E. coli BL21AI, TSB with 25% mouse serum, 20 hours at 37° C. How it is done: as §1
In addition, the antibacterial activity was also determined in the presence of 25% mouse serum. To that end, the MIC values were determined as described above, but 25 μl of mouse serum were also added to each well before the incubation (25% final concentration).

The next data set is described as follows: 25% aqueous mouse serum. The following applies: 37° C., up to 6 hours.

As for `CC[C@H](C)[C@H](NC(=O)[C@H](Cc1ccc(O)cc1)NC(=O)[C@@H](NC(=O)[C@@H]1CCCN1C(=O)[C@H](CCCNC(=N)N)NC(=O)[C@H](CC(N)=O)NC(=O)[C@H](CCCNC(=O)CNC(=O)[C@@H](N)CO)NC(=O)[C@H](CCCN)N=C(N(C)C)N(C)C)C(C)C)C(=O)N1CCC[C@H]1C(=O)N[C@@H](CCCNC(=N)N)C(=O)N1CCC[C@H]1C(=O)N[C@@H](CCCNC(=N)N)C(=O)N1CCC[C@H]1C(=O)N1CCC[C@H]1C(=O)N[C@@H](Cc1c[nH]cn1)C(=O)N1CCC[C@H]1C(=O)N[C@@H](CCCNC(=N)N)C(=O)N[C@@H](CC(C)C)C(=O)O` [Api 300 (SG)] ({Orn(α-tetramethylguanidino)}-[Orn]([Gly-Ser])NRPVYIPRPRPPHPRL-OH), in data set [1], the “MIC in TSB” value is 0.8 µM (≈ 1.95 µg/mL) and the “Effect of peptide linker or remaining linker residues on the MIC” value is on record as “does not increase the MIC or increases it only insignificantly”. The molecule further had a half-life at 15 µg/ml in data set [2] (mouse, pure (100%) mouse serum) of 4 h. The “MIC in TSB/mouse serum” value in data set [3] was determined as 0.21 µM.

As to `CC(C)C[C@H](NC(=O)[C@H](Cc1ccc(O)cc1)NC(=O)[C@@H]1CCCN1C(=O)[C@@H]1CCCN1C(=O)[C@H](CCCCN)NC(=O)[C@H](CC(=O)O)NC(=O)[C@@H](NC(=O)[C@H](CCCNC(=N)N)NC(=O)[C@H](C)NC(=O)CN)C(C)C)C(=O)N1CCC[C@H]1C(=O)N[C@@H](CCCNC(=N)N)C(=O)N1CCC[C@H]1C(=O)N[C@@H](CCCNC(=N)N)C(=O)N1CCC[C@H]1C(=O)N1C[C@H](O)C[C@H]1C(=O)N[C@@H](CCCNC(=N)N)C(=O)N1C[C@H](O)C[C@H]1C(=O)N[C@H](C(=O)N[C@@H](Cc1ccc(O)cc1)C(=O)N[C@@H](CC(N)=O)C(=O)N[C@@H](CCCN)C(N)=O)C(C)(C)C` [GAR-Onc 110] (H-GARVDKPPYLPRPRP[Hyp]R[Hyp][Tle]YN[Orn]-NH2), in data set [1], the “MIC in TSB” value worked out at 1.5 µM (≈ 3.91 µg/mL) and the “Effect of peptide linker or remaining linker residues on the MIC” value is “does not increase the MIC or increases it only insignificantly”. The molecule also showed an amount remaining at 4 h, 15 µg/ml in data set [2] (mouse, pure (100%) mouse serum) of 75%. For the same molecule, the “MIC in TSB/mouse serum” value in data set [3] was 0.65 µM.

In the case of “Guan-O(GARSG)NNRPVYIPRPRPPHPRL-OH (H-GARSG[δOrn(α-TMG)]NNRPVYIPRPRPPHPRL-OH; SMILES CC[C@H](C)[C@H](NC(=O)[C@H](Cc1ccc(O)cc1)NC(=O)[C@@H](NC(=O)[C@@H]1CCCN1C(=O)[C@H](CCCNC(=N)N)NC(=O)[C@H](CC(N)=O)NC(=O)[C@H](CC(N)=O)NC(=O)[C@H](CCCNC(=O)CNC(=O)[C@H](CO)NC(=O)[C@H](CCCNC(=N)N)NC(=O)[C@H](C)NC(=O)CN)N=C(N(C)C)N(C)C)C(C)C)C(=O)N1CCC[C@H]1C(=O)N[C@@H](CCCNC(=N)N)C(=O)N1CCC[C@H]1C(=O)N[C@@H](CCCNC(=N)N)C(=O)N1CCC[C@H]1C(=O)N1CCC[C@H]1C(=O)N[C@@H](Cc1c[nH]cn1)C(=O)N1CCC[C@H]1C(=O)N[C@@H](CCCNC(=N)N)C(=O)N[C@@H](CC(C)C)C(=O)O)”, the cleaved bond entry in “25% aqueous mouse serum” is reported as “R-S”.

With “Guan-O(sPEG^750-GARSG)NNRPVYIPRPRPPHPRL-OH”, the cleaved bond result in “25% aqueous mouse serum” is given as “R-S”.

As for “Guan-O(sPEG^750-GRSG)NNRPVYIPRPRPPHPRL-OH”, the cleaved bond result in “25% aqueous mouse serum” is listed as “R-S”.

“sPEG^750-GAR-VDKPPYLPRPRPPROIYNO-NH2 (sPEG750-GARVDKPPYLPRPRPPR[Orn]IYN[Orn]-NH2) [sPEG^750-GAR-Onc 72]”: in data set [1], the “MIC in TSB” value stood at 12.2 µM. Besides, in data set [2] (pure mouse serum, 37° C.), the “Half-life (t1/2) in serum” value is reported as 6 h. Besides, the “MIC in TSB/mouse serum” value in data set [3] came out at 6.1 µM.
